Laboratory results as given in PubChem BioAssay (NCI).
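A five-concentration, 48-hour dose response in 96-well plates underlies each endpoint, interpolated linearly between surrounding concentrations. GI50 is the concentration that inhibits growth by half. Definition used: TGI = concentration required for complete inhibition of growth.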 Where a SMILES comes first, the peptide text is derived from it. The star is where a group is joined. Cbz = O=C(OCc1ccccc1)*; CH2Cl = ClC*

What was measured:
Assay in all cases: NCI anticancer screen, dose series, 48 h
[1] = system: 786-0 renal
[2] = system: CCRF-CEM leukemia
[3] = system: DU-145 prostate
[4] = system: IGROV1 ovarian
[5] = system: NCI-H226 lung
[6] = system: NCI-H460 lung
[7] = system: NCI-H522 lung
[8] = system: SNB-19 CNS
[9] = system: U251 CNS
[10] = system: UACC-257 melanoma

Compound	GI50 [1] [µM]	TGI [1] [µM]	GI50 [2] [µM]	TGI [2] [µM]	GI50 [3] [µM]	TGI [3] [µM]	GI50 [4] [µM]	TGI [4] [µM]	GI50 [5] [µM]	TGI [5] [µM]	GI50 [6] [µM]	TGI [6] [µM]	GI50 [7] [µM]	TGI [7] [µM]	GI50 [8] [µM]	TGI [8] [µM]	GI50 [9] [µM]	TGI [9] [µM]	GI50 [10] [µM]	TGI [10] [µM]
COc1ccc2c(c1)C(=O)c1c-2c(N2CCN(C(=O)CNCCNCCO)CC2)nc2ccccc12	1.77	3.34	1.98	5.22	6.17	18.4	1.72	4.73	10.9	29.5	1.94	4.14	1.81	4.08	11.1	28.4	4.08	16.3	2.83	6.4
O=C1OCC2=C1C(c1cccc(Br)c1)c1cc3c(cc1N2CCO)CCC3 (stereo unspecified)	0.201	6.22	0.148	10	0.137	0.466	0.157	10.7	0.116	0.761	0.101	5.19	0.0148	0.521	0.209	9.98	0.108	1.55	0.0235	8.12
COc1cc(Cn2c(-c3ccccc3)c(Cl)c3c2-c2oncc2CC3)cc(OC)c1	12.9	> 100	3.54	> 100	26.6	> 100	4.89	21.7	13	43.3	4.91	84	2.15	10.1	22.8	> 100	6.2	> 100	39.3	> 100
CC(C)CC(NC(=O)OCc1ccccc1)C(=O)NC(Cc1ccccc1)C(=O)CCl (stereo not drawn) (Cbz-Leu-Phe-CH2Cl; configuration not given here)	–	3.08	–	0.776	–	> 100	–	4.11	–	3.98	–	18	–	2.74	–	> 56.8	–	22	–	23.7
COc1ccc(/C=C2/N=C(c3ccccc3)N(c3c(C)n(C)n(-c4ccccc4)c3=O)C2=O)cc1OC	> 100	> 100	> 100	> 100	> 100	> 100	> 100	> 100	> 100	> 100	> 100	> 100	> 100	> 100	> 100	> 100	> 100	> 100	> 100	> 100
COc1cc2c(cc1OCCCNC(=O)c1cccc3c(=O)c4ccccc4[nH]c13)N=C[C@@H]1CCCN1C2=O	< 0.01	24	< 0.01	–	< 0.01	13.5	–	> 33.5	< 0.01	< 0.01	–	3.76	–	> 33.6	< 0.0206	> 45.7	< 0.01	> 48.8	< 0.01	0.759
